In brackets after ≈: the same amount, converted by molar mass.
Assays:
Streptococcus species = assay: agar-dilution tests, penicillin-G-resistant Group-D-Streptococcus strains; type: cell-based, Streptococcus sp.
Protocol: In Table VI are summarized the results of agar-dilution tests wherein A-7413 factor A was tested against a variety of Streptococcus species. These tests employed trypticase-soy agar plus blood, 10^-2 dilution of an overnight broth culture in 0.3% agar as an inoculum, giving approximately 5,000 bacteria per 7.5-mm of agar surface. Again, the results for vancomycin in the same test are reported for comparison. All strains tested are penicillin-G-resistant, Group-D-Streptococcus strains.

[1] = test system: Staphylococcus aureus strains; assay: standard agar-dilution tests (ICS method), S. aureus strains; type: cell-based
Protocol: A special advantage of the A-7413 compounds is their ability to inhibit organisms which are resistant to other antibiotics. In Table V are summarized the results of standard agar-dilution tests (using the ICS method) wherein A-7413 factor A was tested against a variety of Staphylococcus aureus strains. Results are given as the minimal inhibitory concentration (MIC) at which inhibition of the S. aureus strain occurred. The results obtained with the known antibiotic vancomycin in the same test are included for comparison.

SMILES: CN[C@H](CC(C)C)C(=O)N[C@H]1C(=O)N[C@@H](CC(N)=O)C(=O)N[C@H]2C(=O)N[C@H]3C(=O)N[C@H](C(=O)N[C@H](C(=O)O)c4cc(O)cc(O)c4-c4cc3ccc4O)[C@H](O)c3ccc(c(Cl)c3)Oc3cc2cc(c3O[C@@H]2O[C@H](CO)[C@@H](O)[C@H](O)[C@H]2O[C@H]2C[C@](C)(N)[C@H](O)[C@H](C)O2)Oc2ccc(cc2Cl)[C@H]1O [Vancomycin, vancomycin]
- MIC (Streptococcus species; Streptococcus sp. strain 238, trypticase-soy agar plus blood): 2 µg/mL
- MIC (Streptococcus species; Streptococcus sp. strain 282, trypticase-soy agar plus blood): 2 µg/mL
- MIC (Streptococcus species; Streptococcus sp. strain 8043, trypticase-soy agar plus blood): 4 µg/mL
- MIC (Streptococcus species; Streptococcus sp. strain 9901, trypticase-soy agar plus blood): 4 µg/mL
- MIC (Streptococcus species; Streptococcus sp. strain 9913, trypticase-soy agar plus blood): 2 µg/mL
- MIC (Streptococcus species; Streptococcus sp. strain 9933, trypticase-soy agar plus blood): 8 µg/mL
- MIC (Streptococcus species; Streptococcus sp. strain 9960, trypticase-soy agar plus blood): 4 µg/mL
- MIC (Streptococcus species; Streptococcus sp. strain 12253P, trypticase-soy agar plus blood): 2 µg/mL
- MIC (Streptococcus species; Streptococcus sp. strain 55992, trypticase-soy agar plus blood): 4 µg/mL
- MIC (Streptococcus species; Streptococcus sp. strain Mitis, trypticase-soy agar plus blood): 4 µg/mL
- MIC (Streptococcus species; Streptococcus sp. strain Shrigley, trypticase-soy agar plus blood): 4 µg/mL
- MIC ([1]; S. aureus strain 3055, penicillin G susceptible): 1 µg/mL (≈ 0.69 µM)
- MIC ([1]; S. aureus strain 3074, penicillin G resistant, methicillin susceptible): 1 µg/mL (≈ 0.69 µM)
- MIC ([1]; S. aureus strain 3123, penicillin G susceptible): 1 µg/mL (≈ 0.69 µM)
- MIC ([1]; S. aureus strain 3125, penicillin G and methicillin resistant): 1 µg/mL (≈ 0.69 µM)
- MIC ([1]; S. aureus strain 3130, penicillin G and methicillin resistant): 1 µg/mL (≈ 0.69 µM)
- MIC ([1]; S. aureus strain 3131, penicillin G and methicillin resistant): 1 µg/mL (≈ 0.69 µM)
- MIC ([1]; S. aureus strain 3132, penicillin G and methicillin resistant): 1 µg/mL (≈ 0.69 µM)
- MIC ([1]; S. aureus strain 3133, penicillin G and methicillin resistant): 1 µg/mL (≈ 0.69 µM)
- MIC ([1]; S. aureus strain 3134, penicillin G and methicillin resistant): 1 µg/mL (≈ 0.69 µM)
- MIC ([1]; S. aureus strain 3135, penicillin G and methicillin resistant): 0.5 µg/mL (≈ 0.345 µM)
- MIC ([1]; S. aureus strain 3136, penicillin G and methicillin resistant): 0.5 µg/mL (≈ 0.345 µM)
- MIC ([1]; S. aureus strain 3137, penicillin G and methicillin resistant): 1 µg/mL (≈ 0.69 µM)
- MIC ([1]; S. aureus strain 3138, penicillin G and methicillin resistant): 1 µg/mL (≈ 0.69 µM)
- MIC ([1]; S. aureus strain 3139, penicillin G and methicillin resistant): 1 µg/mL (≈ 0.69 µM)
- MIC ([1]; S. aureus strain 3140, penicillin G and methicillin resistant): 0.5 µg/mL (≈ 0.345 µM)
- MIC ([1]; S. aureus strain H43, penicillin G resistant, methicillin susceptible): 1 µg/mL (≈ 0.69 µM)
- MIC ([1]; S. aureus strain H114, penicillin G resistant, methicillin susceptible): 1 µg/mL (≈ 0.69 µM)
- MIC ([1]; S. aureus strain H290, penicillin G susceptible): 1 µg/mL (≈ 0.69 µM)
- MIC ([1]; S. aureus strain H541, penicillin G resistant, methicillin susceptible): 1 µg/mL (≈ 0.69 µM)
